Measured values: patent US9982017B2, “Synthetic apelin mimetics for the treatment of heart failure” (priority 2012, dated 2018)
Where a SMILES comes first, the peptide text is derived from it. Bridges are numbered along the chain shown (N, C = ends). [ ]: non-standard residue; d: D form. The star is where a group is joined. Bip = N[C@@H](Cc1ccc(-c2ccccc2)cc1)C(=O)O; Cha = N[C@@H](CC1CCCCC1)C(=O)O; pGlu = O=C1CC[C@@H](C(=O)O)N1; NHPhenethyl = c1ccc(CCN*)cc1; Nle = CCCC[C@H](N)C(=O)O; Aib = CC(C)(N)C(=O)O; Inp = O=C(O)C1CCNCC1

Key:
[1] = Plasma Stability Assay (LC-MS); format: in vitro ADME; conditions: male, Sprague-Dawley, heparinized rat plasma, 37° C., Table 3, read-out: Plasma stability t½
Method: • Working solution: 1 mg/mL test article is prepared in Milli-Q water • Extraction solution: Methanol:Acetonitrile:Water (1:1:1) with 0.1% Formic Acid and 400 ng/mL Glyburide. • Plasma: Male Sprague-Dawley rat plasma (with sodium heparin), purchased from Bioreclamation LLC (Liverpool, N.Y.). • Whole blood: Male Sprague Dawley whole blood (with sodium heparin), purchased from Bioreclamation LLC (Liverpool, N.Y.) • Lung homogenate: Male rat Sprague Dawley lung was purchased from Bioreclamation LLC (Liverpool, N.Y.). The lung was homogenized using polytron homogenizer after addition of 5× volume of 1×PBS. The homogenate was centrifuged at 9000 rpm for 10 min at 4° C. The supernatant was centrifuged again at 3000 rpm for 30 min to make a clear supernatant. Protein concentration was determined using a commercial kit (Pierce, Thermo Scientific). Sample Preparation Procedure:
Test article was prepared in one of the following biological matrices: heparinized rat plasma, heparinized rat whole blood or lung homogenate. The plasma and whole blood sample was prepared at 5000 ng/mL by adding 5 uL of 1 mg/mL Working solution to 995 uL of rat plasma or whole blood. Lung homogenate samples were prepared by diluting lung homogenate to 1 mg/ml protein concentration with phosphate buffered saline (PBS), followed by addition of 5 uL Working solution to 995 uL diluted lung homogenate. The samples were incubated at 37° C. with gentle shaking (65˜75 rpm) in a water bath incubator. At times 0 min, 5 min, 15 min, 30 min, 60 min, 120 and 240 min, 25 uL aliquots of incubation samples were transferred to 96-well plate and immediately protein precipitated using 150 uL of Extraction solution. After completion of incubation experiment, the sample plate was centrifuged at 4000 rpm at 4° C. for 10 minutes. Afterwards, a pipetting device (Tecan Temo) was used to tranfer the supernatants to another plate and add 50 uL of water to all samples. The plate was vortexed prior to LC-MS analysis. • LC-MS Analysis of Stability Samples • HPLC: Agilent 1290 HPLC with autosampler • Column: MAC-MOD ACE C18, 3 μm, 30 mm×2.1 mm i.d. • Mobile phase A: 0.1% Formic acid in acetonitrile • Mobile phase B: 0.1% Formic acid in water Gradient Program: […]

in vitro = conditions: rat, not told
Method: The slope of this line, k, was determined by linear regression (Microsoft Excel). • Stability half-life was then calculated by the formula, t ½=0.693÷k Surrogate Activity-Based Plasma Stability Assay:
The calcium flux protocol described above was followed, with the following changes. The peptides were also incubated with 5% rat plasma (Bioreclamation # [sequence]-M, Na Heparin-treated). Readings were taken at time points t0 and t24 hrs, after incubation in a 37° C. tissue culture incubator. Peptide plasma half-life in minutes was estimated by calculating the following:
2) Calculate slope of value above and

[2] = Surrogate Activity based Plasma stability t½
[3] = Surrogate activity-based Plasma stability t½

SMILES | half-life at 5000 ng/mL [1] | half-life (in vitro; [2]) | half-life (in vitro; [3])
N=C(N)NCCC[C@H](NC(=O)[C@@H]1CCCN1C(=O)[C@H](CCCNC(=N)N)NC(=O)[C@@H]1CCC(=O)N1)C(=O)N[C@@H](CC1CCCCC1)C(=O)N[C@H]1CSSC[C@@H](C(=O)N[C@@H](Cc2ccccc2)C(=O)O)NC(=O)[C@H](CC2CCCCC2)NC(=O)[C@@H]2CCCN2C(=O)CNC(=O)[C@H](CCCCN)NC(=O)[C@H](Cc2c[nH]cn2)NC1=O [Example 14, pE-R-P-R-Cha-C-H-K-G-P-Cha-C-F-OH] ([pGlu]RPR[Cha]CHKGP[Cha]CF-OH; disulfide 6-12) | 1.05 h | 1.42 h | 1.42 h
CCCC[C@@H]1NC(=O)[C@@H]2CCCN2C(=O)CNC(=O)[C@H](CCCCN)NC(=O)[C@H](Cc2c[nH]cn2)NC(=O)[C@@H](NC(=O)[C@H](CC(C)C)NC(=O)[C@H](CCCNC(=N)N)NC(=O)[C@@H]2CCCN2C(=O)[C@H](CCCNC(=N)N)NC(=O)[C@@H]2CCC(=O)N2)CSSC[C@@H](C(=O)NCCc2ccccc2)NC1=O [Example 12, pE-R-P-R-L-C-H-K-G-P-Nle-C-Phenethylamine] ([pGlu]RPRLCHKGP[Nle]C-NHPhenethyl; disulfide 6-12) | 0.898 h | 1.6 h | 1.56 h
CCCC[C@@H]1NC(=O)[C@@H]2CCCN2C(=O)CNC(=O)[C@H](Cc2ccccc2)NC(=O)[C@H](Cc2c[nH]cn2)NC(=O)[C@@H](NC(=O)[C@H](CC(C)C)NC(=O)[C@H](CCCNC(=N)N)NC(=O)[C@@H]2CCCN2C(=O)[C@H](CCCNC(=N)N)NC(=O)[C@@H]2CCC(=O)N2)CSSC[C@@H](C(=O)NCCc2ccccc2)NC1=O [Example 19, pE-R-P-R-L-C-H-F-G-P-Nle-C-Phenethylamine] ([pGlu]RPRLCHFGP[Nle]C-NHPhenethyl; disulfide 6-12) |  |  | 0.473 h
CCCC[C@@H]1NC(=O)[C@@H]2CCCN2C(=O)CNC(=O)[C@H](CCCCN)NC(=O)[C@H](Cc2c[nH]cn2)NC(=O)[C@@H](NC(=O)[C@H](Cc2ccc(-c3ccccc3)cc2)NC(=O)[C@H](CCCNC(=N)N)NC(=O)[C@@H]2CCCN2C(=O)[C@H](CCCNC(=N)N)NC(=O)[C@@H]2CCC(=O)N2)CSSC[C@@H](C(=O)N[C@@H](Cc2ccccc2)C(=O)O)NC1=O [Example 41, pE-R-P-R-(4-PhF)-C-H-K-G-P-Nle-C-F-OH] ([pGlu]RPR[Bip]CHKGP[Nle]CF-OH; disulfide 6-12) |  |  | 10.5 h
CCCC[C@@H]1NC(=O)[C@@H]2CCCN2C(=O)CNC(=O)[C@H](CCCCN)NC(=O)[C@H](Cc2c[nH]cn2)NC(=O)[C@@H](NC(=O)[C@H](CC(C)C)NC(=O)[C@H](CCCNC(=N)N)NC(=O)[C@@H]2CCCN2C(=O)[C@H](CCCNC(=N)N)NC(=O)[C@@H]2CCC(=O)N2)CSSC[C@@H](C(=O)N[C@@H](CCC(=O)O)C(=O)O)NC1=O [Example 49, pE-R-P-R-L-C-H-K-G-P-Nle-C-E-OH] ([pGlu]RPRLCHKGP[Nle]CE-OH; disulfide 6-12) |  |  | > 16.7 h
CCCC[C@@H]1NC(=O)[C@@H]2CCCN2C(=O)CNC(=O)[C@H](CCCCN)NC(=O)[C@H](Cc2c[nH]cn2)NC(=O)[C@@H](NC(=O)[C@H](CC(C)C)NC(=O)[C@H](CCCNC(=N)N)NC(=O)[C@@H]2CCCN2C(=O)[C@H](CCCNC(=N)N)NC(=O)[C@@H]2CCC(=O)N2)CSSC[C@@H](C(=O)O)NC1=O [Example 50, pE-R-P-R-L-C-H-K-G-P-Nle-C-OH] ([pGlu]RPRLCHKGP[Nle]C-OH; disulfide 6-12) |  |  | > 16.7 h

The remaining lines, values ahead:

half-life at 5000 ng/mL [1] | half-life (in vitro; [2]) | half-life (in vitro; [3]) | SMILES
3.05 h | 4.73 h | 4.73 h | CCCC[C@@H]1NC(=O)[C@@H]2CCCN2C(=O)CNC(=O)[C@H](CCCCN)NC(=O)[C@H](Cc2c[nH]cn2)NC(=O)[C@@H](NC(=O)[C@H](CC(C)C)NC(=O)[C@H](CCCNC(=N)N)NC(=O)[C@@H]2CCCN2C(=O)[C@H](CCCNC(=N)N)NC(=O)[C@@H]2CCC(=O)N2)CSSC[C@@H](C(=O)N[C@H](Cc2ccccc2)C(=O)O)NC1=O [Example 13, pE-R-P-R-L-C-H-K-G-P-Nle-C-f-OH] ([pGlu]RPRLCHKGP[Nle]C[dF]-OH; disulfide 6-12)
2.72 h | 6.78 h | 6.78 h | CCCC[C@@H]1NC(=O)[C@@H]2CCCN2C(=O)CNC(=O)[C@H](CCCCN)NC(=O)[C@H](Cc2cnc[nH]2)NC(=O)[C@@H](NC(=O)[C@H](CC(C)C)NC(=O)[C@H](CCCNC(=N)N)NC(=O)[C@@H]2CCCN2C(=O)[C@H](CCCNC(=N)N)NC(=O)[C@@H]2CCC(=O)N2)CSSC[C@@H](C(=O)N[C@@H](Cc2ccccc2)C(=O)O)NC1=O [Example 8, (S)-2-((3S,6R,11R,14S,17S,25aS)-14-((1H-imidazol-5-yl)methyl)-17-(4-aminobutyl)-3-butyl-11-((S)-2-((S)-5-guanidino-2-((S)-1-((S)-5-guanidino-2-((S)-5-oxopyrrolidine-2-carboxamido)pentanoyl)pyrrolidine-2-carboxamido)pentanamido)-4-methylpentanamido)-1,4,12,15,18,21-hexaoxodocosahydro-1H-pyrrolo[2,1-j][1,2,5,8,11,14,17,20]dithiahexaazacyclotricosine-6-carboxamido)-3-phenylpropanoic acid] ([pGlu]RPRLCHKGP[Nle]CF-OH; disulfide 6-12)
0.17 h | 0.223 h | 0.223 h | CCCC[C@@H]1NC(=O)[C@@H]2CCCN2C(=O)CNC(=O)[C@H](CCCCN)NC(=O)[C@H](Cc2c[nH]cn2)NC(=O)[C@@H](NC(=O)[C@H](CC(C)C)NC(=O)[C@H](CCCNC(=N)N)NC(=O)[C@@H]2CCCN2C(=O)[C@@H](N)CCCNC(=N)N)CSSC[C@@H](C(=O)N[C@@H](Cc2ccccc2)C(=O)O)NC1=O [Example 16, H-R-P-R-L-C-H-K-G-P-Nle-C-F-OH] (H-RPRLCHKGP[Nle]CF-OH; disulfide 5-11)
 |  | > 16.7 h | CCCC[C@@H]1NC(=O)[C@@H]2CCCN2C(=O)CNC(=O)[C@H](CCCCN)NC(=O)[C@H](CCC(=O)O)NC(=O)[C@@H](NC(=O)[C@H](CC(C)C)NC(=O)[C@H](CCCNC(=N)N)NC(=O)[C@@H]2CCCN2C(=O)[C@H](CCCNC(=N)N)NC(=O)[C@@H]2CCC(=O)N2)CSSC[C@@H](C(=O)N[C@@H](Cc2ccccc2)C(=O)O)NC1=O [Example 43, pE-R-P-R-L-C-E-K-G-P-Nle-C-F-OH] ([pGlu]RPRLCEKGP[Nle]CF-OH; disulfide 6-12)
 |  | 9.93 h | CCCC[C@@H]1NC(=O)[C@@H]2CCCN2C(=O)CNC(=O)[C@H](CCCCN)NC(=O)[C@H](Cc2cnc[nH]2)NC(=O)[C@@H](NC(=O)[C@H](CC(C)C)NC(=O)[C@H](CCCNC(=N)N)NC(=O)[C@@H]2CCCN2C(=O)[C@H](CCCNC(=N)N)NC(=O)[C@@H]2CCC(=O)N2)CSC[C@@H](C(=O)N[C@@H](Cc2ccccc2)C(=O)O)NC1=O [Example 65, pE-R-P-R-L-C-H-K-G-P-Nle-C-F-OH]
 |  | 8.17 h | CCCC[C@@H]1NC(=O)[C@@H]2CCCN2C(=O)C(C)(C)NC(=O)[C@H](CCCCN)NC(=O)[C@H](Cc2c[nH]cn2)NC(=O)[C@@H](NC(=O)[C@H](CC(C)C)NC(=O)[C@H](CCCNC(=N)N)NC(=O)[C@@H]2CCCN2C(=O)[C@H](CCCNC(=N)N)NC(=O)[C@@H]2CCC(=O)N2)CSSC[C@@H](C(=O)N[C@@H](Cc2ccccc2)C(=O)O)NC1=O [Example 20, pE-R-P-R-L-C-H-K-Aib-P-Nle-C-F-OH] ([pGlu]RPRLCHK[Aib]P[Nle]CF-OH; disulfide 6-12)
 |  | 14.3 h | CCCC[C@@H]1NC(=O)[C@@H]2CCCN2C(=O)[C@H](CC(C)C)NC(=O)[C@H](CCCCN)NC(=O)[C@H](Cc2c[nH]cn2)NC(=O)[C@@H](NC(=O)[C@H](CC(C)C)NC(=O)[C@H](CCCNC(=N)N)NC(=O)[C@@H]2CCCN2C(=O)[C@H](CCCNC(=N)N)NC(=O)[C@@H]2CCC(=O)N2)CSSC[C@@H](C(=O)N[C@@H](Cc2ccccc2)C(=O)O)NC1=O [Example 44, pE-R-P-R-L-C-H-K-L-P-Nle-C-F-OH] ([pGlu]RPRLCHKLP[Nle]CF-OH; disulfide 6-12)
 |  | > 16.7 h | CCCC[C@@H]1NC(=O)[C@@H]2CCCN2C(=O)CNC(=O)[C@H](CCCCN)NC(=O)C(C)(C)NC(=O)[C@@H](NC(=O)[C@H](CC(C)C)NC(=O)[C@H](CCCNC(=N)N)NC(=O)[C@@H]2CCCN2C(=O)[C@H](CCCNC(=N)N)NC(=O)C2CCNCC2)CSSC[C@@H](C(=O)N[C@H](Cc2ccccc2)C(=O)O)NC1=O [Example 11, H-Isn-R-P-R-L-C-Aib-K-G-P-Nle-C-f-OH] (H-[Inp]RPRLC[Aib]KGP[Nle]C[dF]-OH; disulfide 6-12)
 |  | > 16.7 h | CCCC[C@@H]1NC(=O)[C@@H]2CCCN2C(=O)CNC(=O)[C@H](CCCCN)NC(=O)[C@H](Cc2c[nH]cn2)NC(=O)[C@@H](NC(=O)[C@H](CC(=O)O)NC(=O)[C@H](CCCNC(=N)N)NC(=O)[C@@H]2CCCN2C(=O)[C@H](CCCNC(=N)N)NC(=O)[C@@H]2CCC(=O)N2)CSSC[C@@H](C(=O)N[C@@H](Cc2ccccc2)C(=O)O)NC1=O [Example 42, pE-R-P-R-D-C-H-K-G-P-Nle-C-F-OH] ([pGlu]RPRDCHKGP[Nle]CF-OH; disulfide 6-12)
